Values after ≈ are worked out from the molar mass of the structure shown. Each block holds one molecule with its values, some of them ahead of it.
Experiments:
[1] = system: K562/adr (drug-resistant, chronic myeloid leukemia, CML); assay: MTT growth inhibition of leukemia cells, 72 h; type: cell-based, human; conditions: Homo sapiens, K562/Adr; for IC50: read-out: IC50; for IC90: read-out: IC90
Source text: (§1) Leukemia cell lines: leukemia cell lines: K562/adr (drug-resistant, chronic myeloid leukemia, CML), NB4 (acute promyelocytic leukemia, AML), Kasumi-1 (acute myeloid leukemia M2 type, AML-M2), and Jurkat (acute lymphoblastic leukemia, ALL), all of which are donated by Cancer Research Institute of Zhejiang University, China; and H9 (acute lymphoblastic leukemia, ALL), which is purchased from China Center for Type Culture Collection (CCTCC).
(§2) The standard sample of tanshinone I (TA) and the 2-aminated methylene or 2-esterified methylene tanshinone I derivatives of the present invention are sufficiently dissolved with dimethylsulfoxide to produce a stock solution of 10 mg/mL, which is refrigerated at 4° C. and stored in dark, and is diluted with a cell culture medium to the desired concentration prior to experimentation.
(§3) Obtaining 6000 well-growing leukemia cells and inoculating them into wells of a 96-well cell culture plate. The culture medium is the RPMI-1640 cell culture medium containing 10% fetal bovine serum. After adding on the second day the 2-aminated methylene or 2-esterified methylene tanshinone I derivatives of different concentrations and mixing uniformly, placing the plate in a carbon dioxide cell incubator (5% CO2) at 37° C. and incubated for 72 hours. Then the viable cell concentration is determined by MTT method.

[2] = system: NB4 (acute promyelocytic leukemia, AML); assay: MTT growth inhibition of leukemia cells, 72 h; type: cell-based, human; conditions: for IC50 / IC90: Homo sapiens, NB4, 72 h; for IC50: read-out: IC50; for IC90: read-out: IC90
Source text: as §1, §2, §3

[3] = system: Kasumi-1 (acute myeloid leukemia M2 type, AML-M2); assay: MTT growth inhibition of leukemia cells, 72 h; type: cell-based, human; conditions: Homo sapiens, Kasumi-1, 72 h; for IC50: read-out: IC50; for IC90: read-out: IC90
Source text: as §1, §2, §3

[4] = system: H9 (acute lymphoblastic leukemia, ALL); assay: MTT growth inhibition of leukemia cells, 72 h; type: cell-based, human; conditions: for improvement of anti-H9 activity as compared with tanshinone I: H9, vs tanshinone I; for IC50 / IC90: Homo sapiens, H9, 72 h; for IC50: read-out: IC50; for IC90: read-out: IC90
Source text: as §1, §2, §3

[5] = system: Jurkat (acute lymphoblastic leukemia, ALL); assay: MTT growth inhibition of leukemia cells, 72 h; type: cell-based, human; conditions: Homo sapiens, 72 h; for IC50: read-out: IC50; for IC90: read-out: IC90
Source text: as §1, §2, §3

[6] = system: RPMI8226 (multiple myeloma); assay: MTT growth inhibition of multiple myeloma cells, 72 h; type: cell-based, human; conditions: Homo sapiens, RPMI 8226, 72 h; for IC50: read-out: IC50; for IC90: read-out: IC90
Procedure: Myeloma cell lines: RPMI8226 (multiple myeloma), purchased from Fuxiang Bio-tech Co. Ltd., Shanghai, China.
as §2
as §3, with “myeloma” for “leukemia”, “cells as above” for “cells”, “1640” for “RPMI-1640”, “adding” for “adding on the second day”

[7] = system: Hep-2 (laryngeal carcinoma); assay: MTT growth inhibition of human solid tumor cells, 72 h; type: cell-based; conditions: for IC50 / IC90: Homo sapiens, HEp-2, 72 h; for IC50: read-out: IC50; for IC90: read-out: IC90
Procedure: (§4) Hep-2 (laryngeal carcinoma), A549 (human lung cancer), CaES-17 (esophageal cancer cell), PC-3 (prostate cancer), CNE (nasopharyngeal carcinoma cell), and SK-OV-3 (ovarian cancer cell), all of which are purchased from China Center For Type Culture Collection; RKO (human colon adenocarcinoma cell), MGC 803 (human gastric cancer cell), MG63 (osteosarcoma) and U87 MG (malignant glioma cell), all of which are purchased from Fuxiang Bio-tech Co. Ltd., Shanghai, China; PANC-1 (pancreatic cancer), Hep G2 (human liver cancer cell), Becap37 (human breast cancer cell) and Hela (human cervical cancer cell), all of which are donated by Cancer Research Institute of Zhejiang University, China.
as §2
(§5) Obtaining 4000 well-growing human solid tumor cells and inoculating them into wells of a 96-well cell culture plate. The culture medium is DMEM High Glucose cell culture medium containing 10% fetal bovine serum. The plate is placed in a carbon dioxide cell incubator (5% CO2) at 37° C. and incubated for 24 hours. After adding the 2-aminated methylene or 2-esterified methylene tanshinone I derivatives of different concentrations and mixing uniformly, the plate is placed in a carbon dioxide cell incubator (5% CO2) at 37° C. and incubated for 72 hours. Then the viable cell concentration is determined by the MTT method.

[8] = system: U87 MG (malignant glioma cell); assay: as above; type: cell-based; conditions: for IC50 / IC90: Homo sapiens, U-87 MG, U87-MG, 72 h; for IC50: read-out: IC50; for IC90: read-out: IC90
Procedure: as §4, §2, §5

[9] = system: RKO (human colon adenocarcinoma cell); assay: as above; type: cell-based; conditions: Homo sapiens; for IC50: read-out: IC50; for IC90: read-out: IC90
Procedure: as §4, §2, §5

PC-3 (prostate cancer) = assay: as above; type: cell-based; conditions: Homo sapiens, PC-3, 72 h; for IC50: read-out: IC50; for IC90: read-out: IC90
Procedure: as §4, §2, §5

[10] = system: CaES-17 (esophageal cancer cell); assay: as above; type: cell-based; conditions: Homo sapiens, CaEs17, CaEs-17, 72 h; for IC50: read-out: IC50; for IC90: read-out: IC90
Procedure: as §4, §2, §5

[11] = system: SK-OV-3 (ovarian cancer cell); assay: as above; type: cell-based; conditions: Homo sapiens, SK-OV-3, 72 h; for IC50: read-out: IC50; for IC90: read-out: IC90
Procedure: as §4, §2, §5

A549 (human lung cancer) = assay: as above; type: cell-based; conditions: Homo sapiens, A549, 72 h; for IC50: read-out: IC50; for IC90: read-out: IC90
Procedure: as §4, §2, §5

[12] = system: Hela (human cervical cancer cell); assay: as above; type: cell-based; conditions: for IC50 / IC90: Homo sapiens, HeLa, 72 h; for IC50: read-out: IC50; for IC90: read-out: IC90
Procedure: as §4, §2, §5

[13] = system: MGC 803 (human gastric cancer cell); assay: as above; type: cell-based; conditions: Homo sapiens, MGC-803, 72 h; for IC50: read-out: IC50; for IC90: read-out: IC90
Procedure: as §4, §2, §5

[14] = system: Becap37 (human breast cancer cell); assay: as above; type: cell-based; conditions: Homo sapiens, Becap-37, 72 h; for IC50: read-out: IC50; for IC90: read-out: IC90
Procedure: as §4, §2, §5

[15] = system: Hep G2 (human liver cancer cell); assay: as above; type: cell-based; conditions: Homo sapiens, HepG2, Hep G2, 72 h; for IC50: read-out: IC50; for IC90: read-out: IC90
Procedure: as §4, §2, §5

MG63 (osteosarcoma) = assay: as above; type: cell-based; conditions: Homo sapiens, MG-63, 72 h; for IC50: read-out: IC50; for IC90: read-out: IC90
Procedure: as §4, §2, §5

[16] = system: CNE (nasopharyngeal carcinoma cell); assay: as above; type: cell-based; conditions: Homo sapiens; for IC50: read-out: IC50; for IC90: read-out: IC90
Procedure: as §4, §2, §5

[17] = system: PANC-1 (pancreatic cancer); assay: as above; type: cell-based; conditions: Homo sapiens, PANC-1, 72 h; for IC50: read-out: IC50; for IC90: read-out: IC90
Procedure: as §4, §2, §5

- IC50 [1]: 0.16 µg/mL (≈ 0.458 µM)
- IC90 [1]: 1.08 µg/mL (≈ 3.09 µM)
- IC50 [2]: 0.04 µg/mL (≈ 0.114 µM)
- IC90 [2]: 0.08 µg/mL (≈ 0.229 µM)
- IC50 [3]: 0.074 µg/mL (≈ 0.212 µM)
- IC90 [3]: 0.12 µg/mL (≈ 0.343 µM)
- IC50 [4]: 0.13 µg/mL (≈ 0.372 µM)
- IC90 [4]: 0.41 µg/mL (≈ 1.17 µM)
- IC50 [5]: 0.17 µg/mL (≈ 0.487 µM)
- IC90 [5]: 0.47 µg/mL (≈ 1.35 µM)
- IC50 [6]: 0.125 µg/mL (≈ 0.358 µM)
- IC90 [6]: 0.25 µg/mL (≈ 0.716 µM)
- IC50 [7]: 0.78 µg/mL (≈ 2.23 µM)
- IC90 [7]: 2.38 µg/mL (≈ 6.81 µM)
- IC50 [8]: 0.15 µg/mL (≈ 0.429 µM)
- IC90 [8]: 0.35 µg/mL (≈ 1 µM)
- IC50 [9]: 0.037 µg/mL (≈ 0.106 µM)
- IC90 [9]: 0.29 µg/mL (≈ 0.83 µM)
- IC50 (PC-3 (prostate cancer)): 0.44 µg/mL (≈ 1.26 µM)
- IC90 (PC-3 (prostate cancer)): 3.58 µg/mL (≈ 10.2 µM)
- IC50 [10]: 0.3 µg/mL (≈ 0.859 µM)
- IC90 [10]: 0.81 µg/mL (≈ 2.32 µM)
- IC50 [11]: 0.86 µg/mL (≈ 2.46 µM)
- IC90 [11]: 1.91 µg/mL (≈ 5.47 µM)
- IC50 (A549 (human lung cancer)): 0.979 µg/mL (≈ 2.8 µM)
- IC90 (A549 (human lung cancer)): 3.52 µg/mL (≈ 10.1 µM)
- IC50 [12]: 0.42 µg/mL (≈ 1.2 µM)
- IC90 [12]: 1 µg/mL (≈ 2.86 µM)
- IC50 [13]: 0.15 µg/mL (≈ 0.429 µM)
- IC90 [13]: 1.7 µg/mL (≈ 4.87 µM)
- IC50 [14]: 0.27 µg/mL (≈ 0.773 µM)
- IC90 [14]: 0.68 µg/mL (≈ 1.95 µM)
- IC50 [15]: 0.31 µg/mL (≈ 0.887 µM)
- IC90 [15]: 1.5 µg/mL (≈ 4.29 µM)
- IC50 (MG63 (osteosarcoma)): 0.31 µg/mL (≈ 0.887 µM)
- IC90 (MG63 (osteosarcoma)): 0.98 µg/mL (≈ 2.8 µM)
- IC50 [16]: 0.6 µg/mL (≈ 1.72 µM)
- IC90 [16]: 1.8 µg/mL (≈ 5.15 µM)
- IC50 [17]: 0.26 µg/mL (≈ 0.744 µM)
- IC90 [17]: 1.9 µg/mL (≈ 5.44 µM)
SMILES: Cc1c(CNCCO)oc2c1C(=O)C(=O)c1c-2ccc2c(C)cccc12 [BS-TA-65]
- improvement of anti-NB4 activity as compared with tanshinone I ([2]; NB4, vs tanshinone I): 24 fold
- improvement of anti-H9 activity as compared with tanshinone I [4]: 27 fold
- improvement of anti-U87 MG activity as compared with tanshinone I ([8]; U87 MG, vs tanshinone I): more than 42 fold

- IC50 [1]: 0.47 µg/mL (≈ 1.02 µM)
- IC90 [1]: 0.76 µg/mL (≈ 1.64 µM)
- IC50 [2]: 0.15 µg/mL (≈ 0.324 µM)
- IC90 [2]: 0.41 µg/mL (≈ 0.886 µM)
- IC50 [3]: 0.13 µg/mL (≈ 0.281 µM)
- IC90 [3]: 0.39 µg/mL (≈ 0.843 µM)
- IC50 [4]: 0.125 µg/mL (≈ 0.27 µM)
- IC90 [4]: 0.49 µg/mL (≈ 1.06 µM)
- IC50 [5]: 0.37 µg/mL (≈ 0.8 µM)
- IC90 [5]: 0.94 µg/mL (≈ 2.03 µM)
- IC50 [6]: 0.25 µg/mL (≈ 0.54 µM)
- IC90 [6]: 0.83 µg/mL (≈ 1.79 µM)
- IC50 [7]: 0.62 µg/mL (≈ 1.34 µM)
- IC90 [7]: 1.76 µg/mL (≈ 3.81 µM)
- IC50 [8]: 0.66 µg/mL (≈ 1.43 µM)
- IC90 [8]: 1.55 µg/mL (≈ 3.35 µM)
- IC50 [9]: 0.14 µg/mL (≈ 0.303 µM)
- IC90 [9]: 1.28 µg/mL (≈ 2.77 µM)
- IC50 (PC-3 (prostate cancer)): 0.92 µg/mL (≈ 1.99 µM)
- IC90 (PC-3 (prostate cancer)): 3.74 µg/mL (≈ 8.09 µM)
- IC50 [10]: 0.52 µg/mL (≈ 1.12 µM)
- IC90 [10]: 0.59 µg/mL (≈ 1.28 µM)
- IC50 [11]: 1.66 µg/mL (≈ 3.59 µM)
- IC90 [11]: 3.39 µg/mL (≈ 7.33 µM)
- IC50 (A549 (human lung cancer)): 0.8 µg/mL (≈ 1.73 µM)
- IC90 (A549 (human lung cancer)): 2.82 µg/mL (≈ 6.1 µM)
- IC50 [12]: 0.47 µg/mL (≈ 1.02 µM)
- IC90 [12]: 1.75 µg/mL (≈ 3.78 µM)
- IC50 [13]: 0.41 µg/mL (≈ 0.886 µM)
- IC90 [13]: 2.24 µg/mL (≈ 4.84 µM)
- IC50 [14]: 0.4 µg/mL (≈ 0.865 µM)
- IC90 [14]: 0.9 µg/mL (≈ 1.95 µM)
- IC50 [15]: 0.66 µg/mL (≈ 1.43 µM)
- IC90 [15]: 1.85 µg/mL (≈ 4 µM)
- IC50 (MG63 (osteosarcoma)): 0.61 µg/mL (≈ 1.32 µM)
- IC90 (MG63 (osteosarcoma)): 1.79 µg/mL (≈ 3.87 µM)
- IC50 [16]: 0.63 µg/mL (≈ 1.36 µM)
- IC90 [16]: 1.43 µg/mL (≈ 3.09 µM)
- IC50 [17]: 0.4 µg/mL (≈ 0.865 µM)
- IC90 [17]: 4.73 µg/mL (≈ 10.2 µM)
SMILES: Cc1c(CN(C)CCOC(=O)[C@@H](N)C(C)C)oc2c1C(=O)C(=O)c1c-2ccc2c(C)cccc12 [BS-TA-71]
- improvement of anti-H9 activity as compared with tanshinone I [4]: 28 fold
- improvement of anti-Hep-2 activity as compared with tanshinone I ([7]; Hep-2, vs tanshinone I): more than 4 fold
- improvement of anti-Hela activity as compared with tanshinone I ([12]; Hela, vs tanshinone I): more than 8 fold

Reference: patent publication US9328083B2, “2-aminated methylene or 2-esterified methylene tanshinone derivatives, and preparation method and application thereof” (HANGZHOU BENSHENG PHARMACEUTICAL CO., LTD., priority 2011, dated 2016)
